Key:
[1] = tested on: L. amazonensis; experiment: In vivo therapeutic response in the hamster model for cutaneous leishmaniasis; parameters: species or system Golden hamsters (Mesocricetus aerates); settings: intramuscular, once a day x 10 days, 120 mg/kg day
Method: In Vivo Therapeutic Response of Cream Product Formulation on L. amazonensis
(§1) The evaluation of the therapeutic response and toxicity of the cream formulation was carried out in the hamster model for cutaneous leishmaniasis (Robledo et al, 2012) using the Golden hamsters (Mesocricetus aerates). Animals were handled under the same micro and macro environmental conditions. Experimental groups were named accordingly: A. Cream product formulation once a day; B. Cream product formulation twice a day; C. Placebo once a day and D. Placebo twice a day. Additionally, two groups of animals were used as control groups. One of them (E) was used to evaluate meglumine antimoniate as a control medicine at the curative (120 mg/kg day×10 days) and the other group (F) were infected and untreated animals.
The effectiveness of each treatment was assessed comparing the lesion sizes prior to and after treatments, using the following score system: cure (healing of 100% area and complete disappearance of the lesion); clinical improvement (reducing the size of the lesion in >30% of the area); clinical failure (reduction in the size of the lesion lower than 30% or increase in the size of the lesion); relapse (reactivation of lesion after cure).

[2] = tested on: 3T3; experiment: In vitro 3T3 NRU phototoxicity test (OECD Guideline No 432); assay type: cell-based
From the text: Phototoxicity/Photosensitisation Potential: The OECD Guideline No 432 was Followed.

[3] = biphasic elimination described for amphotericin B; cited from earlier work
[4] = rat, in vivo
From the text: In Vivo Skin Absorption/Penetration. This Study Followed the OECD Test Guideline 427.
In this method the test substance is applied to the clipped skin of animals and is allowed to remain in contact with the skin for a fixed period of time under a non-occlusive cover to prevent ingestion of the test preparation. At the end of the exposure time the cover is removed and the skin is cleaned with an appropriate cleansing agent, the cover and the cleansing materials are retained for analysis and a fresh cover applied. Animals were exposed to the test preparation during 8 hours. One group was killed at the end of the exposure period. Other group was sacrificed at 48 hours and a third group was sacrificed at 72 hours after the end of exposure. The samples were assayed for concentration of amphotericin B by HPLC and the degree of percutaneous absorption was estimated.
Dosage and treatment groups: 12 animals were used, divided into three groups, which were applied the product under study. Four animals for each time interval: 8 h, 48 h and 72 h.
Environmental conditions and housing: The animals were randomly distributed in individual cages. During the experiment, water management and food was ad libitum. […]

[5] = tested on: reconstructed human tissue model (RHE); assay type: cell-based
From the text: In Vitro Skin Corrosion Test (Adapted from OECD Guideline No. 431):
To evaluate skin corrosion a reconstructed human tissue model (RHE) in three dimensions was used.

[6] = tested on: Reconstructed Human corneal Epithelium tissue (HCE); assay type: cell-based
Method: In Vitro Eye Irritation (Adapted from OECD Guideline No. 439):
For evaluation of eye irritation (cornea tissue) we used the Acute Eye irritation test using Reconstructed Human corneal Epithelium tissue (HCE).
Each test substance (cream product formulation, placebo, positive and negative controls) was applied topically. After 10 minutes, 2 hours and 24 hours of treatment cell viability was determined using MTT.

[7] = In vivo toxicity in infected hamsters (body weight, serum analytes, histopathology); parameters: species or system Golden hamsters (Mesocricetus aerates)
Method: as §1
Hamsters were weighed weekly from the beginning of the experiment until three months after the end of the treatment.
Effect of Treatments on Serum Levels of BUN, Creatinine and ALT:

[8] = tested on: Trypanosoma cruzi (T. cruzi); settings: given soon after infection at the onset of the acute phase; cited from earlier work

For meglumine antimoniate, the efficacy [1] was 71%.
For `C[C@H]1c2cccc(O)c2C(=O)C2=C(O)[C@]3(O)C(=O)C(C(N)=O)=C(O)[C@@H](N(C)C)[C@@H]3[C@@H](O)[C@@H]21` [doxycycline], the phototoxicity classification [2] was “phototoxic” and the PIF ([2]; exposure to light) was 9.3.
For `C[C@@H]1[C@H](O)[C@@H](C)/C=C/C=C/C=C/C=C/C=C/C=C/C=C/[C@H](O[C@@H]2O[C@H](C)[C@@H](O)[C@H](N)[C@@H]2O)C[C@@H]2O[C@](O)(C[C@@H](O)C[C@@H](O)[C@H](O)CC[C@@H](O)C[C@@H](O)CC(=O)O[C@H]1C)C[C@H](O)[C@H]2C(=O)O` [amphotericin B, Amphotericin B], the “elimination half life, last elimination phase” value [3] is listed as 15 days, the “amphotericin B in urine” value [4] is listed as “not detected” and the skin corrosion [5] is listed as “does not show skin corrosion”. The “eye (corneal) irritation” value [6] was “no corneal irritation”, the kidney histopathology [7] was “no significant changes” and the liver histopathology ([7]; one or two applications per day) was “no lesions or significant changes”.
In the case of `O=C(Cn1ccnc1[N+](=O)[O-])NCc1ccccc1` [benznidazole], the “effectiveness in curing the disease” value [8] is listed as roughly 100%.

— patent publication US9801895B1, “Cream formulation with amphotericin B and oil in water useful for topical application to mucous tissue and skin against diseases produced by leishmaniasis” (priority 2013, dated 2017)
